According to PMC6832219, “Synthesis of Novel Baicalein Amino Acid Derivatives and Biological Evaluation as Neuroprotective Agents” (Molecules, 2019):

Columns and labels:
[1] = tested on: injured SH-SY5Y cells; assay: Protective effect against tert-butyl hydroperoxide-induced SH-SY5Y neurotoxicity cells (MTT assay); format: cell-based; settings: Homo sapiens;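 for Proliferation Rate (%): 0% equals CoCl2-injured cells and 100% equals NGF-treated cells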
Method: The protective effects of baicalein derivatives in vitro was evaluated against tert-butyl, hydroperoxide-induced, SH-SY5Y neurotoxicity cells using an MTT assay. In addition, their toxicity evaluation was tested on normal H9C2 cells. The resulting proliferation rates (%) at different concentrations, as well as their 50% effective concentrations (EC50) for protecting damaged SH-SY5Y cells of the baicalein amino acid derivatives, are summarized in Table 2.
The SH-SY5Y ([…]) and H9C2 ([…]) cell lines were obtained from the Chinese Academy of Medical Sciences and Peking Union Medical College. All of the cell lines were grown in dulbecco’s modified eagle medium (DMEM) with 10% (v/v) fetal bovine serum (FBS) and 1% (v/v) penicillin/streptomycin (Thermo Technologies, New York, NY, USA), under a humidified atmosphere containing 5% CO2 at 37 °C. The baicalein derivatives were dissolved in DMSO (Sigma, St. Louis, MO, USA) and added at various concentrations to the cell culture.
The protective effect of these compounds was evaluated on SH-SY5Y and H9C2 cell lines via the MTT method. The cells growing in the logarithmic phase were cultured in 96-well plates at a density 3 × 10^3 cells/well and incubated for 24 h. Then each well was treated with the required concentrations (50 µM concentrations, 25 µM concentrations, 12.5µM concentrations, 6.25 µM concentrations, and 3.125 µM concentrations) of baicalein derivatives, and incubated 36 h at 37 °C with 5% CO2. After that, the cells were induced by H2O2 (final concentration, […]) for 12 h. Control-differentiated cells were injected with new growth media at equal amounts. Before […] MTT solution (5 mg/mL) was added to each well, the cell culture fluid was discarded, and […] fresh cell culture fluid was added. The plate was incubated for a further 4 h at 37 °C. The cell supernatant medium was removed carefully, without disturbing the attached cells, and formazan crystals were solubilized by adding 150 μL DMSO into each well. The absorbance was measured at 490 nm with a plate reader (BIORAD 550 spectrophotometer, Bio-rad Life Science Development Ltd., Beijing, China). H2O2 was dissolved in DMEM medium. Wells without drugs were used as blanks. The EC50 values were defined as the concentrations that causes the maximum effect of 50%; IC50 values were defined as the concentration of compound which gives 50% growth inhibition, and were calculated using the GraphPad Prism 5. The proliferation rates of damaged SH-SY5Y cells were calculated in the following formula (1): [OD490 (compound) − OD490 (CoCl2)]/[OD490 (NGF) − OD490 (CoCl2)] × 100%(1) The EC50 values were using the equation −pEC50 = log Cmax − log 2 × (ΣP − 0.75 + 0.25Pmax + 0.25Pmin)(2) where Cmax is the maximum concentration, ΣP is the sum of proliferation rates, Pmax is the maximum value of the proliferation rate, and Pmin is the minimum value of the proliferation rate. Cell viability was expressed as a percentage of the control.

[2] = tested on: chick chorioallantoic membrane (CAM); assay: Angiogenesis assay on chick chorioallantoic membrane (CAM), gelatin sponge; format: in vivo; settings: 1 and 4 mg/mL on gelatin sponge
Method: Especially multi-effective neuroprotective agents present positive effects to neurosurgical patients. According to the references, baicalein can promote angiogenesis. Analogously, the angiogenesis activities of compound 8 were evaluated by a CAM assay (Figure 4 and Figure 5). The model was established according to our previous work. After implantation, the sponge is treated with a stimulator of blood vessel formation in the absence or presence of an angiogenesis inhibitor. […] The high survival rate of embryos and normal growth of medium and large vessels (inner diameter > 50 µm) indicates successful modeling and low toxicity of compound 8 […] (Figure 5). Suppression of small vessels (inner diameter < 50 µm) were recognized as angiogenesis activity. […]
Fertilized White Leghorn chicken eggs (50–65 g), provided by the Chinese Academy of Agricultural Sciences, were placed in an incubator as soon as embryogenesis started, and were kept under constant humidity of 65% at 37 °C. […] Quantitative evaluation of the angiogenic response, expressed as microvessel density, can be obtained by applying a morphometric method of “point counting” on histological CAM sections. Data was analyzed using a t-test of the statistics analysis system; the values were expressed as mean ± SD of six observations, and p < 0.05 was considered significant. […]

[3] = tested on: H9C2 cells; assay: Toxicity on normal H9C2 cells (MTT assay); format: cell-based; settings: read-out: Survival Rate (%)

## O=C(NC(Cc1ccccc1)C(=O)Oc1c(O)cc2oc(-c3ccccc3)cc(=O)c2c1O)OCc1ccccc1 (stereo not drawn) [Compound 8, 5,7-dihydroxy-4-oxo-2-phenyl-4H-chromen-6-yl 2-{[(benzyloxy)carbonyl]amino}-3-phenyl-proppanpate]
[1]; 3.125 µM, injured SH-SY5Y cells, read-out: Proliferation Rate (%)
  viability at 3.125 µM: 52.5%
[1]; 6.25 µM, injured SH-SY5Y cells, read-out: Proliferation Rate (%)
  viability at 6.25 µM: 75.1%
[1]; 12.5 µM, injured SH-SY5Y cells, read-out: Proliferation Rate (%)
  viability at 12.5 µM: 83.1%
[1]; 25 µM, injured SH-SY5Y cells, read-out: Proliferation Rate (%)
  viability at 25 µM: 87.3%
[1]; 50 µM, injured SH-SY5Y cells, read-out: Proliferation Rate (%)
  viability at 50 µM: 94%
[1]; tert-butyl hydroperoxide-induced SH-SY5Y neurotoxicity, read-out: EC50 for protecting injured SH-SY5Y cells
  EC50: 4.31 µM
[2]
  Toxicity in CAM model (embryo survival, medium and large vessels): low toxicity
[2]; 48 h
  Angiogenesis activity on CAM (small vessels): dramatically promote small angiogenesis in a dose-dependent manner
[3]
  viability at 100 µM: 168%
